# Data from US20120252741A1, “NOVEL SEMI-SYNTHETIC GLYCOPEPTIDES AS ANTIBACTERIAL AGENTS” (priority 2008, published 2012).
# Where two headings read alike, the source gives them in different places.
# Assays:
# Format in all cases: cell-based
# [1] = tested on: Staphylococcus aureus 100 (ATCC 29213); assay: MIC, broth microdilution, SA 100; details: Staphylococcus aureus, ATCC29213, class symbols, read-out: MIC SA 100
# Description: (§1) Antibacterial activity in vitro is investigated by broth microdilution method in Meuller-Hinton broth as recommended by NCCLS. All strains tested are clinical isolates either sensitive or resistant to natural glycopeptides. MIC values were determined using the CLSI-recommended broth microdilution procedure (Clinical and Laboratory Standards Institute, Methods for Dilution Antimicrobial Susceptibility Tests for Bacteria That Grow Aerobically; Approved Standard-Seventh Edition.). Automated liquid handlers (Multidrop 384, Labsystems, Helsinki, Finland; Biomek 2000 and Multimek 96, Beckman Coulter, Fullerton Calif.) were used to conduct serial dilutions and liquid transfers. The MIC value for vancomycin is given for comparison. The abbreviations for organisms tested are as follow: SA 100—Staphylococcus aureus 100 (ATCC 29213); SA 757—Staphylococcus aureus 757 (MRSA); SA 2012—Staphylococcus aureus 2012 (VISA); SE 835—Staphylococcus epidermidis 835; SE 831—Staphylococcus epidermidis 831 (MRSE); EFc 101—Enterococcus faecalis 101 (ATCC 29212); EFc 848—Enterococcus faecalis 848 (VRE, Van A); EFcm 800—Enterococcus faecium 800; EFcm 752—Enterococcus faecium 752 (VRE, Van A); SPNE 1195—Streptococcus pneumoniae 1195 (ATCC 49619); SPY 712—Streptococcus pyogenes 712.
# [2] = tested on: Staphylococcus aureus 757 (MRSA); assay: MIC, broth microdilution, SA 757; details: read-out: MIC SA 757
# Description: as §1
# [3] = tested on: Staphylococcus aureus 2012 (VISA); assay: MIC, broth microdilution, SA 2012; details: read-out: MIC SA 2012
# Description: as §1
# [4] = tested on: Staphylococcus epidermidis 835; assay: MIC, broth microdilution, SE 835; details: Staphylococcus epidermidis, 835, class symbols, read-out: MIC SE 835
# Description: as §1
# [5] = tested on: Staphylococcus epidermidis 831 (MRSE); assay: MIC, broth microdilution, SE 831; details: Staphylococcus epidermidis, read-out: MIC SE 831
# Description: as §1
# [6] = tested on: Enterococcus faecalis 101 (ATCC 29212); assay: MIC, broth microdilution, EFc 101; details: Enterococcus faecalis, ATCC29212, class symbols, read-out: MIC E FC 101
# Description: as §1
# [7] = tested on: Enterococcus faecalis 848 (VRE, Van A); assay: MIC, broth microdilution, EFc 848; details: VRE, Van A, class symbols, read-out: MIC E FC 848
# Description: as §1
# Enterococcus faecium 800 = assay: MIC, broth microdilution, EFcm 800; details: Enterococcus faecium, 800, class symbols, read-out: MIC E FCM 800
# Description: as §1
# [8] = tested on: Enterococcus faecium 752 (VRE, Van A); assay: MIC, broth microdilution, EFcm 752; details: VRE, Van A, class symbols, read-out: MIC E FCM 752
# Description: as §1
# [9] = tested on: Streptococcus pneumoniae 1195 (ATCC 49619); assay: MIC, broth microdilution, SPNE 1195; details: Streptococcus pneumoniae, ATCC49619, class symbols, read-out: MIC S PNE 1195
# Description: as §1
# [10] = tested on: Streptococcus pyogenes 712; assay: MIC, broth microdilution, SPY 712; details: Streptococcus pyogenes, 712, class symbols, read-out: MIC S PYO 712
# Description: as §1
# [11] = Table 2, in the presence of 0.002% Polysorbate 80
# [12] = Table 2, in the presence of 0.002% Polysorbate 80, class symbols
Compound,MIC ([1]; Table 1) [mg/L],"MIC ([2]; Table 1, class symbols) [mg/L]","MIC ([3]; Table 1, class symbols) [mg/L]",MIC ([4]; Table 1) [mg/L],"MIC ([5]; Table 1, class symbols) [mg/L]",MIC ([6]; Table 1) [mg/L],MIC ([7]; Table 1) [mg/L],MIC (Enterococcus faecium 800; Table 1) [mg/L],MIC ([8]; Table 1) [mg/L],MIC ([9]; Table 1) [mg/L],MIC ([10]; Table 1) [mg/L],"MIC [1, 11] [mg/L]","MIC [2, 12] [mg/L]","MIC [3, 12] [mg/L]","MIC [4, 11] [mg/L]","MIC [5, 12] [mg/L]","MIC [6, 11] [mg/L]","MIC [7, 11] [mg/L]",MIC (Enterococcus faecium 800; [11]) [mg/L],"MIC [8, 11] [mg/L]",further results
CCCCCCCCC(=O)NC(=O)C[C@@H]1NC(=O)[C@H](NC(=O)[C@@H](CC(C)C)NC)[C@H](O)c2ccc(c(Cl)c2)Oc2cc3cc(c2O[C@@H]2O[C@H](CO)[C@@H](O)[C@H](O)[C@H]2O[C@H]2C[C@](C)(N)[C@H](O)[C@H](C)O2)Oc2ccc(cc2Cl)[C@@H](O)[C@@H]2NC(=O)[C@H](NC(=O)[C@@H]3NC1=O)c1ccc(O)c(c1)-c1c(O)cc(O)cc1[C@@H](C(=O)NC1C3CC4CC(C3)CC1C4)NC2=O (stereo partly drawn) [Compound 42],0.01 to 0.5,0.01 to 0.5,1 to 2,0.01 to 0.5,0.01 to 0.5,0.01 to 0.5,1 to 2,0.01 to 0.5,0.01 to 0.5,0.01 to 0.5,0.01 to 0.5,,,,,,,,,,
CCCCCCCCCC(=O)NC(=O)C[C@@H]1NC(=O)[C@H](NC(=O)[C@@H](CC(C)C)NC)[C@H](O)c2ccc(c(Cl)c2)Oc2cc3cc(c2O[C@@H]2O[C@H](CO)[C@@H](O)[C@H](O)[C@H]2O[C@H]2C[C@](C)(N)[C@H](O)[C@H](C)O2)Oc2ccc(cc2Cl)[C@@H](O)[C@@H]2NC(=O)[C@H](NC(=O)[C@@H]3NC1=O)c1ccc(O)c(c1)-c1c(O)cc(O)cc1[C@@H](C(=O)NC1C3CC4CC(C3)CC1C4)NC2=O (stereo partly drawn) [Compound 43],0.01 to 0.5,0.5 to 1,1 to 2,0.01 to 0.5,0.01 to 0.5,0.01 to 0.5,1 to 2,0.01 to 0.5,0.01 to 0.5,0.01 to 0.5,0.01 to 0.5,,,,,,,,,,

# Now from value to compound, other results behind:
MIC ([1]; Table 1) [mg/L],"MIC ([2]; Table 1, class symbols) [mg/L]","MIC ([3]; Table 1, class symbols) [mg/L]",MIC ([4]; Table 1) [mg/L],"MIC ([5]; Table 1, class symbols) [mg/L]",MIC ([6]; Table 1) [mg/L],MIC ([7]; Table 1) [mg/L],MIC (Enterococcus faecium 800; Table 1) [mg/L],MIC ([8]; Table 1) [mg/L],MIC ([9]; Table 1) [mg/L],MIC ([10]; Table 1) [mg/L],"MIC [1, 11] [mg/L]","MIC [2, 12] [mg/L]","MIC [3, 12] [mg/L]","MIC [4, 11] [mg/L]","MIC [5, 12] [mg/L]","MIC [6, 11] [mg/L]","MIC [7, 11] [mg/L]",MIC (Enterococcus faecium 800; [11]) [mg/L],"MIC [8, 11] [mg/L]",Compound,further results
0.5 to 1,0.5 to 1,2 to 4,0.01 to 0.5,0.01 to 0.5,0.5 to 1,> 16,0.01 to 0.5,> 16,0.01 to 0.5,0.01 to 0.5,,,,,,,,,,CCCCOCC(=O)NC(=O)C[C@@H]1NC(=O)[C@H](NC(=O)[C@@H](CC(C)C)NC)[C@H](O)c2ccc(c(Cl)c2)Oc2cc3cc(c2O[C@@H]2O[C@H](CO)[C@@H](O)[C@H](O)[C@H]2O[C@H]2C[C@](C)(N)[C@H](O)[C@H](C)O2)Oc2ccc(cc2Cl)[C@@H](O)[C@@H]2NC(=O)[C@H](NC(=O)[C@@H]3NC1=O)c1ccc(O)c(c1)-c1c(O)cc(O)cc1[C@@H](C(=O)NC1C3CC4CC(C3)CC1C4)NC2=O (stereo partly drawn) [Compound 44],
,,,,,,,,,,,0.01 to 0.5,0.01 to 0.5,2 to 4,0.01 to 0.5,0.01 to 0.5,0.01 to 0.5,2 to 4,0.01 to 0.5,0.01 to 0.5,CCCCCCC(C)C(=O)NC(=O)C[C@@H]1NC(=O)[C@H](NC(=O)[C@@H](CC(C)C)NC)[C@H](O)c2ccc(c(Cl)c2)Oc2cc3cc(c2O[C@@H]2O[C@H](CO)[C@@H](O)[C@H](O)[C@H]2O[C@H]2C[C@](C)(N)[C@H](O)[C@H](C)O2)Oc2ccc(cc2Cl)[C@@H](O)[C@@H]2NC(=O)[C@H](NC(=O)[C@@H]3NC1=O)c1ccc(O)c(c1)-c1c(O)cc(O)cc1[C@@H](C(=O)NC1C3CC4CC(C3)CC1C4)NC2=O (stereo partly drawn) [Compound 46],"MIC [9, 11]: 0.01 to 0.5 mg/L; MIC [10, 11]: 0.01 to 0.5 mg/L"
,,,,,,,,,,,0.01 to 0.5,0.01 to 0.5,1 to 2,1 to 2,0.01 to 0.5,0.01 to 0.5,4 to 8,0.01 to 0.5,1 to 2,CNCCOc1ccc(C(=O)NC(=O)C[C@@H]2NC(=O)[C@H](NC(=O)[C@@H](CC(C)C)NC)[C@H](O)c3ccc(c(Cl)c3)Oc3cc4cc(c3O[C@@H]3O[C@H](CO)[C@@H](O)[C@H](O)[C@H]3O[C@H]3C[C@](C)(N)[C@H](O)[C@H](C)O3)Oc3ccc(cc3Cl)[C@@H](O)[C@@H]3NC(=O)[C@H](NC(=O)[C@@H]4NC2=O)c2ccc(O)c(c2)-c2c(O)cc(O)cc2[C@@H](C(=O)NC2C4CC5CC(C4)CC2C5)NC3=O)cc1 (stereo partly drawn) [Compound 67],"MIC [10, 11]: 0.01 to 0.5 mg/L"
